{"source": "patent US4668690A", "about": "“1,2,3,4,4a,9b-hexahydro-4a-aminoalkyldibenzofurans useful as analgesics, anticonvulsants or antidepressants” (Hoechst Roussel Pharmaceuticals Inc., priority 1985, dated 1987)", "key": {"[1]": {"system": "supra maximal electroshock (extensor tonus)", "experiment": "supra maximal electroshock assay (anticonvulsant)", "assay_type": "in vivo, male mice (Charles River, CD-1)", "details": "for ED50: Mus musculus, sc, read-out: ED50, anticonvulsant effect (supra maximal electroshock)"}, "[2]": {"system": "phenyl-para-quinone induced writhing", "experiment": "phenyl-para-quinone writhing assay in mice (analgesia)", "assay_type": "in vivo", "details": "for inhibition in vivo at 25 mg/kg: 25 mg/kg subcutaneous; for ED50: read-out: ED50, inhibition of phenyl-para-quinone induced writhing", "text": "The compounds of the invention are primarily useful as analgesic, anticonvulsant and antidepressant agents. […] Exptl. Biol. Med., 95, 729 (1953)]. Listed below in Table I is the analgesic effect of some of the compounds of the invention, expressed as percent inhibition of phenyl-para-quinone induced writhing."}, "[3]": {"system": "ptosis of tetrabenazine-induced depression", "experiment": "inhibition of tetrabenazine-induced depression (ptosis) in mice (antidepressant)", "assay_type": "in vivo"}, "[4]": {"details": "Mus musculus, sc, subcutaneous, mice, 50% inhibition"}, "[5]": {"details": "subcutaneous, mice, 50% inhibition"}}, "note": "Where a name gives a salt, the structure may show the parent alone. Read-outs that look alike come from different tables or passages of the source."}
{"compound": "CN1C(=O)CN=C(c2ccccc2)c2cc(Cl)ccc21", "note": "[Diazepam, reference compound]", "values": [{"measurement": "% Inhibition, anticonvulsant effect (supra maximal electroshock)", "setting": "[1]; 1.7 mg/kg subcutaneous, mice, standard", "result": 50, "unit": "%"}]}
{"compound": "CN(CCCOc1ccccc1)CC[C@@]12CCCC[C@@H]1c1ccccc1O2", "note": "(relative stereo) [Cis-1,2,3,4,4a,9b-hexahydro-4a-[2-{N-methyl-N-(3-phenoxypropyl)}aminoethyl]dibenzofuran oxalate]", "values": [{"measurement": "inhibition in vivo at 25 mg/kg", "setting": "[2]; Mus musculus, sc, mice", "result": 65, "unit": "%"}]}
{"compound": "CN(CCC[C@@]12CCCC[C@@H]1c1ccccc1O2)CCc1ccccc1.Cl", "note": "(relative stereo) [cis-1,2,3,4,4a,9b-Hexahydro-4a-[3-(N-methyl-N-phenethylamino)propyl]dibenzofuran hydrochloride]", "values": [{"measurement": "ED50", "setting": "[2]; [4]", "result": 20.8, "unit": "mg/kg"}, {"measurement": "% Inhibition, anticonvulsant effect (supra maximal electroshock)", "setting": "[1]; 25 mg/kg subcutaneous, mice", "result": 50, "unit": "%"}]}
{"compound": "CCC(=O)O[C@](Cc1ccccc1)(c1ccccc1)[C@H](C)CN(C)C", "note": "[propoxyphene, reference compound]", "values": [{"measurement": "inhibition in vivo at 3.9 mg/kg", "setting": "[2]; Mus musculus, sc, read-out: % Inhibition of phenyl-para-quinone induced writhing", "result": 50, "unit": "%"}]}
{"compound": "CNC1=Nc2ccc(Cl)cc2C(c2ccccc2)=[N+]([O-])C1", "note": "[Chlorodiazepoxide, reference compound]", "values": [{"measurement": "% Inhibition, anticonvulsant effect (supra maximal electroshock)", "setting": "[1]; 8.0 mg/kg subcutaneous, mice, standard", "result": 50, "unit": "%"}]}
{"compound": "CN(C)CC[C@@]12CCCC[C@@H]1c1ccccc1O2.Cl", "note": "(relative stereo) [cis-4a-(2-Dimethylaminoethyl)-1,2,3,4,4a,9b-Hexahydrodibenzofuran hydrochloride]", "values": [{"measurement": "inhibition in vivo at 25 mg/kg", "setting": "[2]; Mus musculus, sc, mice", "result": 67, "unit": "%"}, {"measurement": "ED50", "setting": "[1]; [5]", "result": 22.4, "unit": "mg/kg"}, {"measurement": "% Inhibition of the ptosis of tetrabenazine-induced depression", "setting": "[3]; 20.0 mg/kg intraperitoneal", "result": 70, "unit": "%"}]}
{"compound": "CN(C)CCC=C1c2ccccc2CCc2ccccc21", "note": "[Amitriptyline, reference compound]", "values": [{"measurement": "% Inhibition of the ptosis of tetrabenazine-induced depression", "setting": "[3]; 2.0 mg/kg intraperitoneal, standard", "result": 50, "unit": "%"}]}
{"compound": "CN(CCCc1ccccc1)CCC[C@@]12CCCC[C@@H]1c1ccccc1O2", "note": "(relative stereo) [cis-1,2,3,4,4a,9b-Hexahydro-4a-[3-(N-(3-phenylpropyl)-N-methyl)aminopropyl]dibenzofuran oxalate hydrate]", "values": [{"measurement": "inhibition in vivo at 25 mg/kg", "setting": "[2]; Mus musculus, sc, mice", "result": 37, "unit": "%"}]}
{"compound": "CN(CCc1ccccc1)CC[C@@]12CCCC[C@@H]1c1ccccc1O2", "note": "(relative stereo) [cis-1,2,3,4,4a,9b-Hexahydro-4a-[2-(N-methyl-N-phenethyl)aminoethyl]dibenzofuran hydrochloride]", "values": [{"measurement": "inhibition in vivo at 25 mg/kg", "setting": "[2]; Mus musculus, sc, mice", "result": 63, "unit": "%"}]}
{"compound": "CN(C)CCC[C@@]12CCCC[C@@H]1c1ccccc1O2.Cl", "note": "(relative stereo) [cis-4a-(Dimethylaminopropyl)-1,2,3,4,4a,9b-hexahydrodibenzofuran hydrochloride]", "values": [{"measurement": "ED50", "setting": "[2]; [4]", "result": 12.2, "unit": "mg/kg"}, {"measurement": "ED50", "setting": "[1]; [5]", "result": 28.1, "unit": "mg/kg"}]}
{"compound": "c1ccc2c(c1)O[C@]1(CCCN3CCCCC3)CCCC[C@H]21", "note": "(relative stereo) [cis-1,2,3,4,4a,9b-hexahydro-4a-(3-piperidinopropyl)dibenzofuran oxalate]", "values": [{"measurement": "inhibition in vivo at 25 mg/kg", "setting": "[2]; Mus musculus, sc, mice", "result": 64, "unit": "%"}]}
{"compound": "CNC[C@@]12CCCC[C@@H]1c1ccccc1O2.Cl", "note": "(relative stereo) [cis-1,2,3,4,4a,9b-Hexahydro-4a-methylaminomethyldibenzofuran hydrochloride]", "values": [{"measurement": "ED50", "setting": "[2]; [4]", "result": 25.8, "unit": "mg/kg"}, {"measurement": "ED50", "setting": "[1]; [5]", "result": 22.5, "unit": "mg/kg"}]}
{"compound": "CN(C)C[C@@]12CCCC[C@@H]1c1ccccc1O2.Cl", "note": "(relative stereo) [Cis-1,2,3,4,4a,9b-hexahydro-4a-dimethylaminomethyldibenzofuran hydrochloride]", "values": [{"measurement": "ED50", "setting": "[2]; [4]", "result": 21.7, "unit": "mg/kg"}]}
{"compound": "CN(CCC[C@@]12CCCC[C@@H]1c1ccccc1O2)Cc1ccco1", "note": "(relative stereo) [cis-1,2,3,4,4a,9b-Hexahydro-4a-[3-(N-methyl-N-furfuryl)aminopropyl]dibenzofuran oxalate hydrate]", "values": [{"measurement": "inhibition in vivo at 25 mg/kg", "setting": "[2]; Mus musculus, sc, mice", "result": 61, "unit": "%"}]}
{"compound": "CC(C)=CCN(C)CC[C@@]12CCCC[C@@H]1c1ccccc1O2", "note": "(relative stereo) [cis-1,2,3,4,4a,9b-Hexahydro-4a-[2-(N-(3-methyl-2-butenyl)-N-methyl)aminoethyl]dibenzofuran oxalate]", "values": [{"measurement": "% Inhibition of the ptosis of tetrabenazine-induced depression", "setting": "[3]; 20.0 mg/kg intraperitoneal", "result": 77, "unit": "%"}]}
{"compound": "CNCC[C@@]12CCCC[C@@H]1c1ccccc1O2.Cl", "note": "(relative stereo) [cis-1,2,3,4,4a,9b-Hexahydro-4a-(2-methylaminoethyl)dibenzofuran hydrochloride]", "values": [{"measurement": "ED50", "setting": "[2]; Mus musculus, sc", "result": 16.2, "unit": "mg/kg"}, {"measurement": "ED50", "setting": "[1]", "result": 41.7, "unit": "mg/kg"}, {"measurement": "% Inhibition of the ptosis of tetrabenazine-induced depression", "setting": "[3]; 20.0 mg/kg intraperitoneal", "result": 60, "unit": "%"}]}
{"compound": "cis-1,2,3,4,4a,9b-Hexahydro-4a-[2-[N-(3-phenylpropyl)-N-methylamino]ethyl]dibenzofuran oxalate hemihydrate", "values": [{"measurement": "ED50, inhibition of phenyl-para-quinone induced writhing", "setting": "[2]; [5]", "result": 7.3, "unit": "mg/kg"}]}
{"compound": "CNCCC[C@@]12CCCC[C@@H]1c1ccccc1O2", "note": "(relative stereo) [cis-1,2,3,4,4a,9b-Hexahydro-4a-(3-methylaminopropyl)dibenzofuran]", "values": [{"measurement": "inhibition in vivo at 25 mg/kg", "setting": "[2]; Mus musculus, sc, mice", "result": 58, "unit": "%"}, {"measurement": "ED50", "setting": "[1]; [5]", "result": 27.7, "unit": "mg/kg"}, {"measurement": "ED50", "setting": "[3]; Mus musculus, ip, intraperitoneal, 50% inhibition", "result": 5.9, "unit": "mg/kg"}]}
